Measured values taken from US9440901B2, “Method for producing reduced coenzyme Q10” (KANEKA CORPORATION, priority 2012, dated 2016).

Assays:
[1] = background statement; cited from earlier work
[2] = solubility of the crystal forms of reduced coenzyme Q10; type: physicochemical; conditions: compared to Form I crystal

SMILES | oral absorbability compared to oxidized coenzyme Q10 [1] | solubility compared with conventional reduced coenzyme Q10 crystals (Form I) [2]
COc1c(O)c(C)c(C/C=C(\C)CC/C=C(\C)CC/C=C(\C)CC/C=C(\C)CC/C=C(\C)CC/C=C(\C)CC/C=C(\C)CC/C=C(\C)CC/C=C(\C)CCC=C(C)C)c(O)c1OC [reduced coenzyme Q10] | high oral absorbability | 
COc1c(O)c(C)c(C/C=C(\C)CC/C=C(\C)CC/C=C(\C)CC/C=C(\C)CC/C=C(\C)CC/C=C(\C)CC/C=C(\C)CC/C=C(\C)CC/C=C(\C)CCC=C(C)C)c(O)c1OC [Form II, reduced coenzyme Q10] |  | lower solubility
